Measured values reported in patent publication US20230219965A1 (KSQ Therapeutics, Inc., priority 2020, published 2023).
Where two headings read alike, the source gives them in different places.

Experiments:
[1] = Liver microsomal metabolic stability, human liver microsomes (HLM); conditions: human, liver microsomes
[2] = Liver microsomal metabolic stability, rat liver microsomes (RLM); conditions: rat, liver microsomes, t1/2 (min) in RLM, 1 μM compound, 1 mg/mL microsomes, NADPH
[3] = molecular target: USP1/UAF1 enzyme (Homo sapiens, UniProt O94782); assay: USP1/UAF1 deubiquitination assay (ubiquitin-rhodamine 110 substrate); format: biochemical; conditions: read-out: USP1 IC50 (Ub-Rho)
Outline: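 Cleavage of 150 nM ubiquitin-rhodamine 110 by 0.05 nM USP1/UAF1 was followed as fluorescence (Ex480/Em540, kinetic, 30 min) in Tris-HCl pH 7.8 buffer with EDTA, BSA, DTT and Tween-20. Compounds, top 10 μM, were preincubated with enzyme 10 min; % inhibition against no-enzyme and DMSO wells gave four-parameter IC50s.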

[4] = ADME solubility determination in PBS at pH 2.0 and pH 7.4; format: physicochemical; conditions: phosphate buffered saline, 25 °C, thermodynamic from solid
Outline: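 Solubility was read by LC-MS/MS on centrifuged supernatants, calibrated to a known-concentration standard and corrected for dilution. Compound, dried down from 10 mM DMSO stock, was equilibrated 24 h at 25° C with shaking in PBS at pH 2.0 or pH 7.4.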

[5] = system: Ub-PCNA levels in the nucleus of ES2 cells (USP1 activity); assay: ES2 Ub-PCNA immunofluorescence (IF) assay; format: cell-based; conditions: Homo sapiens, ES-2; ES2 cells, 3 hours, Ub-PCNA immunofluorescence; read-out: USP1 IC50 (Ub-PCNA)
Outline: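 AC50 derived from percent Ub-PCNA-positive nuclei, positivity set by a 95% cutoff from untreated-well intensities. Readout by imaging immunofluorescence (anti-Ub-PCNA, DAPI nuclear mask) after methanol fixation. Compound exposure: 3 h at 37° C, 0.3% DMSO final, on cells plated overnight.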

[6] = pH 2, aqueous buffer, PBS pH 2.0, 25° C., read-out: Solubility at pH 2.0
[7] = pH 7.4, aqueous buffer, PBS pH 7.4, 25° C., read-out: Solubility at pH 7.4

Sequence of USP1/UAF1 enzyme (O94782 whole entry): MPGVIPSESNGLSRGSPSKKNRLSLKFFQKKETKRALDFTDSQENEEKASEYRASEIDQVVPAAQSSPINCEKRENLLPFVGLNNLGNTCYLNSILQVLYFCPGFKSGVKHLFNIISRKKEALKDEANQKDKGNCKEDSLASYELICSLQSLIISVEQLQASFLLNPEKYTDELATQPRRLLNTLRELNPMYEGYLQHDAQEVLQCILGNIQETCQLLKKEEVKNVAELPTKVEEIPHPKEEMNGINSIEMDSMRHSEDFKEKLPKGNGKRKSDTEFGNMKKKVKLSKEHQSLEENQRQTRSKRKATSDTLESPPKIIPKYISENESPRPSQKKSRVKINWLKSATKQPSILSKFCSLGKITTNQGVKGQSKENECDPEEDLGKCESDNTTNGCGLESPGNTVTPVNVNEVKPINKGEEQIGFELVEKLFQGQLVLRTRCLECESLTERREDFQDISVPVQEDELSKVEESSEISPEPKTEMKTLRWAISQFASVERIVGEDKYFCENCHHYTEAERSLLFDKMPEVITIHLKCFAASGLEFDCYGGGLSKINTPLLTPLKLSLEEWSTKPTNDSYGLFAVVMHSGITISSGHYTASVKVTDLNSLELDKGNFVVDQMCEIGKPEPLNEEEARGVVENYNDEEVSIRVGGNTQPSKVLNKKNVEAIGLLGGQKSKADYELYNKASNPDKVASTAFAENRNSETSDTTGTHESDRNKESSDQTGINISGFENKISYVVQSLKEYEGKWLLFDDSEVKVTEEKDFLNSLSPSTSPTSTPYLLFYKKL
Sequence of USP1/UAF1 enzyme (Q8TAF3 whole entry partner): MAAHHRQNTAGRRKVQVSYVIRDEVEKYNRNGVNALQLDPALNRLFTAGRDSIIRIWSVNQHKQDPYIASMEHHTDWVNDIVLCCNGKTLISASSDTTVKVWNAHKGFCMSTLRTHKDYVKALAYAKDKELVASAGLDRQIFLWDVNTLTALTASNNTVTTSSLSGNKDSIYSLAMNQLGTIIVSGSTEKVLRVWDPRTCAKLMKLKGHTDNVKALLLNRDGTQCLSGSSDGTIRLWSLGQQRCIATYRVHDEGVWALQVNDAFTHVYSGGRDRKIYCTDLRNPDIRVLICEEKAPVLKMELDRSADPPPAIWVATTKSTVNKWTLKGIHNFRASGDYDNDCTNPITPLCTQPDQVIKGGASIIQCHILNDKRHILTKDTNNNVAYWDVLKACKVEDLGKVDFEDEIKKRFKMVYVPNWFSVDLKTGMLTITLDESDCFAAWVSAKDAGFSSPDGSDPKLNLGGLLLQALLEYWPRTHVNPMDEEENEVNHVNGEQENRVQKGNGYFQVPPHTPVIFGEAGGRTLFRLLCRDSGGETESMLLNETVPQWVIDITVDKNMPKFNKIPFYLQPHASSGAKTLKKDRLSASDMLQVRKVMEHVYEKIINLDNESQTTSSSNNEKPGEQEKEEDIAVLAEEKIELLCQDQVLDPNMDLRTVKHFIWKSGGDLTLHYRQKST

| SMILES | half-life at 1 μM [1] [min] | half-life at 1 μM [2] [min] | IC50 [3] [µM] | solubility at 24 h [4, 6] [µM] | solubility at 24 h [4, 7] [µM] | IC50 [5] [µM] |
| --- | --- | --- | --- | --- | --- | --- |
| CCn1cc(C(F)(F)F)nc1-c1ccc(NC2c3cc(-c4c(Cl)cnn4C(C)C)nn3CCC2(C)C)cc1 (stereo not drawn) [Example 352, 2-(4-chloro-1-isopropyl-1H-pyrazol-5-yl)-N-(4-(1-ethyl-4-(trifluoromethyl)-1H-imidazol-2-yl)phenyl)-5,5-dimethyl-4,5,6,7-tetrahydropyrazolo[1,5-α]pyridin-4-amine] | > 25 | < 25 | < 0.1 | < 10 | < 10 | < 0.1 |
| CCn1cc(C(F)(F)F)nc1-c1ccc(CN2CC(N)Cn3nc(-c4c(Cl)cnn4C(C)C)cc32)cc1F (stereo not drawn) [Example 353, 2-(4-chloro-1-isopropyl-1H-pyrazol-5-yl)-4-(4-(1-ethyl-4-(trifluoromethyl)-1H-imidazol-2-yl)-3-fluorobenzyl)-4,5,6,7-tetrahydropyrazolo[1,5-α]pyrimidin-6-amine] | < 25 | < 25 | < 0.1 | ≥ 10 | < 10 | < 0.1 |
| CCn1cc(C(F)(F)F)nc1-c1ccc(NC2CCCCn3nc(-c4c(Cl)cnn4C(C)C)cc32)cc1 (stereo not drawn) [Example 357, 2-(4-chloro-1-isopropyl-1H-pyrazol-5-yl)-N-(4-(1-ethyl-4-(trifluoromethyl)-1H-imidazol-2-yl)phenyl)-5,6,7,8-tetrahydro-4H-pyrazolo[1,5-α]azepin-4-amine] | < 25 | < 25 | < 0.1 | < 10 | < 10 | < 0.1 |
| CCn1cc(C(F)(F)F)nc1-c1ccc(OC2CCCCn3nc(-c4c(Cl)cnn4C(C)C)cc32)cc1 (stereo not drawn) [Example 358, 2-(4-chloro-1-isopropyl-1H-pyrazol-5-yl)-4-(4-(1-ethyl-4-(trifluoromethyl)-1H-imidazol-2-yl)phenoxy)-5,6,7,8-tetrahydro-4H-pyrazolo[1,5-α]azepine] | > 25 | < 25 | < 0.1 | < 10 | < 10 | < 0.1 |
| CCn1cc(C(F)(F)F)nc1-c1ccc(CN2C(=O)CCn3nc(-c4c(OC(F)F)ncnc4C4CC4)nc32)cc1 [Example 364, 2-(4-cyclopropyl-6-(difluoromethoxy)pyrimidin-5-yl)-4-(4-(1-ethyl-4-(trifluoromethyl)-1H-imidazol-2-yl)benzyl)-6,7-dihydro-[1,2,4]triazolo[1,5-α]pyrimidin-5(4H)-one] | > 25 | > 25 | < 0.1 | < 10 | < 10 | < 0.1 |
| COc1c(CN2C(=O)CCn3nc(-c4c(OC(F)F)ncnc4C4CC4)nc32)ccc(-c2nc(C(F)(F)F)cn2C(C)C)c1F [Example 365, 2-(4-cyclopropyl-6-(difluoromethoxy)pyrimidin-5-yl)-4-(3-fluoro-4-(1-isopropyl-4-(trifluoromethyl)-1H-imidazol-2-yl)-2-methoxybenzyl)-6,7-dihydro-[1,2,4]triazolo[1,5-a]pyrimidin-5(4H)-one] | > 25 | > 25 | < 0.1 | < 10 | < 10 | < 0.1 |
| CC(C)n1cc(C(F)(F)F)nc1-c1ccc(C(N2CCCn3nc(-c4c(Cl)cnn4C(C)C)cc32)C(F)(F)F)cc1F (stereo not drawn) [Example 371, 2-(4-chloro-1-isopropyl-1H-pyrazol-5-yl)-4-(2,2,2-trifluoro-1-(3-fluoro-4-(1-isopropyl-4-(trifluoromethyl)-1H-imidazol-2-yl)phenyl)ethyl)-4,5,6,7-tetrahydropyrazolo[1,5-α]pyrimidine] | < 25 | < 25 | < 0.1 | < 10 | < 10 | < 0.1 |

Second part, the molecule after the results:

| half-life at 1 μM [1] [min] | half-life at 1 μM [2] [min] | IC50 [3] [µM] | solubility at 24 h [4, 6] [µM] | solubility at 24 h [4, 7] [µM] | IC50 [5] [µM] | SMILES |
| --- | --- | --- | --- | --- | --- | --- |
| > 25 | > 25 | < 0.1 | < 10 | < 10 | < 0.1 | CCn1cc(C(F)(F)F)nc1-c1ccc(CN2C(=O)C(C)Cn3nc(-c4c(OC(F)F)ncnc4C4CC4)nc32)cc1F (stereo not drawn) [Example 351, 2-(4-cyclopropyl-6-(difluoromethoxy)pyrimidin-5-yl)-4-(4-(1-ethyl-4-(trifluoromethyl)-1H-imidazol-2-yl)-3-fluorobenzyl)-6-methyl-6,7-dihydro-[1,2,4]triazolo[1,5-a]pyrimidin-5(4H)-one] |
| < 25 | < 25 | < 0.1 | < 10 | < 10 | 0.1 to 0.5 | CCn1cc(C(F)(F)F)nc1-c1ccc(NC2CCCc3nn(-c4ccccc4C(C)C)cc32)cc1F (stereo not drawn) [Example 355, N-(4-(1-ethyl-4-(trifluoromethyl)-1H-imidazol-2-yl)-3-fluorophenyl)-2-(2-isopropylphenyl)-4,5,6,7-tetrahydro-2H-indazol-4-amine] |
| < 25 | < 25 | < 0.1 | ≥ 10 | < 10 | < 0.1 | CCn1cc(C(F)(F)F)nc1-c1ccc(CC2c3cc(-c4c(Cl)cnn4C(C)C)nn3CCN2C)cc1 (stereo not drawn) [Example 360, 2-(4-chloro-1-isopropyl-1H-pyrazol-5-yl)-4-(4-(1-ethyl-4-(trifluoromethyl)-1H-imidazol-2-yl)benzyl)-5-methyl-4,5,6,7-tetrahydropyrazolo[1,5-α]pyrazine] |
| < 25 | < 25 | < 0.1 | ≥ 10 | ≥ 10 | 0.1 to 0.5 | CCn1cc(C(F)(F)F)nc1-c1ccc(CC2c3cc(-c4c(OC)ncnc4C4CC4)nn3CCN2C)cc1 (stereo not drawn) [Example 362, 2-(4-cyclopropyl-6-methoxypyrimidin-5-yl)-4-(4-(1-ethyl-4-(trifluoromethyl)-1H-imidazol-2-yl)benzyl)-5-methyl-4,5,6,7-tetrahydropyrazolo[1,5-a]pyrazine] |
| > 25 | > 25 | < 0.1 | < 10 | < 10 | < 0.1 | CCn1cc(C(F)(F)F)nc1-c1ccc(CN2C(=O)CCn3nc(-c4c(OC(F)F)ncnc4C4CC4)nc32)cc1F [Example 370, 2-(4-cyclopropyl-6-(difluoromethoxy)pyrimidin-5-yl)-4-(4-(1-ethyl-4-(trifluoromethyl)-1H-imidazol-2-yl)-3-fluorobenzyl)-6,7-dihydro-[1,2,4]triazolo[1,5-a]pyrimidin-5(4H)-one] |
